Test results published in the OligoGym collection.
Oligonucleotides are written 5' to 3', each unit as a sugar letter and its base; * is a phosphorothioate linkage, no mark a phosphodiester; rarer units and linkages stand in square brackets, end groups in braces. Plain capitals give the bases only. d = 2'-deoxy (DNA); r = 2'-OH (RNA)

molecular target: UBE2E3; assay: reporter assay of Huesken 2005; settings: siRNA
Further: test concentration or dose not given here.

Substance | normalised inhibition (eCFP-eYFP dual reporter) [%]
sense rCrCrArArArCrUrCrUrCrUrArGrCrArArArArCdTdT / antisense rGrUrUrUrUrGrCrUrArGrArGrArGrUrUrUrGrGdTdG | 69.8
sense rCrUrGrGrArGrUrCrCrCrGrCrUrUrUrGrArCrUdTdT / antisense rArGrUrCrArArArGrCrGrGrGrArCrUrCrCrArGdTdT | 72
sense rArUrUrCrArGrArArGrGrArGrCrUrArGrCrUrGdTdT / antisense rCrArGrCrUrArGrCrUrCrCrUrUrCrUrGrArArUdTdC | 42.3
sense rArCrArCrCrArArArCrUrCrUrCrUrArGrCrArAdTdT / antisense rUrUrGrCrUrArGrArGrArGrUrUrUrGrGrUrGrUdTdT | 90.1
sense rArArCrArGrUrCrArGrGrGrArGrUrCrArUrCrUdTdT / antisense rArGrArUrGrArCrUrCrCrCrUrGrArCrUrGrUrUdGdA | 58.5
sense rArUrCrArCrUrGrCrArArCrArUrCrArArCrArGdTdT / antisense rCrUrGrUrUrGrArUrGrUrUrGrCrArGrUrGrArUdAdG | 69.7
sense rGrGrArGrUrCrArUrCrUrGrUrCrUrGrGrArCrAdTdT / antisense rUrGrUrCrCrArGrArCrArGrArUrGrArCrUrCrCdCdT | 75.6
sense rUrGrCrUrArArGrUrUrArUrCrCrArCrUrArGrUdTdT / antisense rArCrUrArGrUrGrGrArUrArArCrUrUrArGrCrAdGdT | 82.8
sense rArArCrUrCrUrCrUrArGrCrArArArArCrCrArCdTdT / antisense rGrUrGrGrUrUrUrUrGrCrUrArGrArGrArGrUrUdTdG | 52.4
sense rGrGrArGrArUrArArCrArUrUrUrArUrGrArArUdTdT / antisense rArUrUrCrArUrArArArUrGrUrUrArUrCrUrCrCdTdT | 75.8
sense rUrArUrGrArArGrGrUrGrGrUrGrUrGrUrUrUrUdTdT / antisense rArArArArCrArCrArCrCrArCrCrUrUrCrArUrAdTdA | 50.1
sense rCrCrUrCrCrUrCrCrUrArArUrUrGrCrArGrUrGdTdT / antisense rCrArCrUrGrCrArArUrUrArGrGrArGrGrArGrGdAdT | 62.6

molecular target: UBE2G1; assay: reporter assay of Huesken 2005; settings: siRNA

Substance | normalised inhibition (eCFP-eYFP dual reporter) [%]
sense rUrCrCrUrUrArUrUrArUrUrGrGrCrCrCrUrCrCdTdT / antisense rGrGrArGrGrGrCrCrArArUrArArUrArArGrGrAdCdT | 44.7
sense rArUrGrUrUrGrArUrGrCrUrGrCrGrArArArGrAdTdT / antisense rUrCrUrUrUrCrGrCrArGrCrArUrCrArArCrArUdTdA | 104
sense rCrArCrCrCrArArArUrGrUrUrGrArUrArArArAdTdT / antisense rUrUrUrUrArUrCrArArCrArUrUrUrGrGrGrUrGdCdC | 73.1
sense rUrUrCrUrArUrGrCrUrGrGrCrArGrArCrCrCrUdTdT / antisense rArGrGrGrUrCrUrGrCrCrArGrCrArUrArGrArAdAdT | 61
sense rArUrCrCrArGrUrGrGrArArGrGrCrUrUrUrUrCdTdT / antisense rGrArArArArGrCrCrUrUrCrCrArCrUrGrGrArUdTdT | 65.4
sense rUrCrUrGrCrArGrGrUrUrUrArArUrArGrArUrGdTdT / antisense rCrArUrCrUrArUrUrArArArCrCrUrGrCrArGrAdAdA | 60.6
sense rArGrUrGrUrCrArUrUrUrCrUrArUrGrCrUrGrGdTdT / antisense rCrCrArGrCrArUrArGrArArArUrGrArCrArCrUdAdA | 47.6
sense rGrCrCrCrUrCrCrArGrArUrArCrArCrUrUrUrAdTdT / antisense rUrArArArGrUrGrUrArUrCrUrGrGrArGrGrGrCdCdA | 75.2
sense rArUrArArGrUrArUrGrGrUrUrArUrGrArArArAdTdT / antisense rUrUrUrUrCrArUrArArCrCrArUrArCrUrUrArUdCdT | 69.3
sense rArCrCrUrCrCrUrArArArArUrGrArArArUrUrCdTdT / antisense rGrArArUrUrUrCrArUrUrUrUrArGrGrArGrGrUdCdG | 39.5
sense rUrGrArArArUrUrCrArUrUrArCrArGrArArArUdTdT / antisense rArUrUrUrCrUrGrUrArArUrGrArArUrUrUrCrAdTdT | 61.6
sense rUrArCrCrGrArUrGrGrGrArArGrUrCrCrUrUrAdTdT / antisense rUrArArGrGrArCrUrUrCrCrCrArUrCrGrGrUrAdGdA | 93.1
sense rArArCrCrArUrCrArUrGrArUrUrArGrUrGrUrCdTdT / antisense rGrArCrArCrUrArArUrCrArUrGrArUrGrGrUrUdTdC | 65.4
sense rArGrCrCrArGrArGrGrArArCrGrCrUrGrGrCrUdTdT / antisense rArGrCrCrArGrCrGrUrUrCrCrUrCrUrGrGrCrUdTdT | 37.8
sense rGrArGrArArUrUrUrArArArArGrArArArArGrUdTdT / antisense rArCrUrUrUrUrCrUrUrUrUrArArArUrUrCrUrCdCdA | 56.4
sense rCrUrCrCrCrUrArUrCrCrArCrArCrUrGrUrGrGdTdT / antisense rCrCrArCrArGrUrGrUrGrGrArUrArGrGrGrArGdCdC | 62.9
sense rCrCrCrUrCrCrGrArCrCrUrCrCrUrArArArArUdTdT / antisense rArUrUrUrUrArGrGrArGrGrUrCrGrGrArGrGrGdGdA | 62.4
sense rUrGrGrUrGrArUrGrUrGrUrGrCrArUrUrUrCrUdTdT / antisense rArGrArArArUrGrCrArCrArCrArUrCrArCrCrAdTdT | 85
sense rGrGrArArArCrCrArUrCrArUrGrArUrUrArGrUdTdT / antisense rArCrUrArArUrCrArUrGrArUrGrGrUrUrUrCrCdAdC | 54.4
sense rArGrArCrUrCrArCrCrUrGrCrUrArArUrGrUrUdTdT / antisense rArArCrArUrUrArGrCrArGrGrUrGrArGrUrCrUdCdC | 81.1

Substance | normalised inhibition (eCFP-eYFP dual reporter) [%]
sense rArArGrCrCrArGrArGrGrArArCrGrCrUrGrGrCdTdT / antisense rGrCrCrArGrCrGrUrUrCrCrUrCrUrGrGrCrUrUdTdT | 35.9
sense rArCrCrUrGrCrUrArArUrGrUrUrGrArUrGrCrUdTdT / antisense rArGrCrArUrCrArArCrArUrUrArGrCrArGrGrUdGdA | 93.9
sense rUrCrUrGrGrCrArCrCrCrArArArUrGrUrUrGrAdTdT / antisense rUrCrArArCrArUrUrUrGrGrGrUrGrCrCrArGrAdTdT | 73.4
sense rGrGrUrGrArUrGrUrGrUrGrCrArUrUrUrCrUrAdTdT / antisense rUrArGrArArArUrGrCrArCrArCrArUrCrArCrCdAdT | 94.7
sense rArUrGrArCrArArUrGrArUrCrUrCrUrArCrCrGdTdT / antisense rCrGrGrUrArGrArGrArUrCrArUrUrGrUrCrArUdCdT | 40.5
sense rArUrGrGrUrUrArUrGrArArArArGrCrCrArGrAdTdT / antisense rUrCrUrGrGrCrUrUrUrUrCrArUrArArCrCrArUdAdC | 39.2
sense rGrGrArArGrUrCrCrUrUrArUrUrArUrUrGrGrCdTdT / antisense rGrCrCrArArUrArArUrArArGrGrArCrUrUrCrCdCdA | 71
sense rArGrArUrArCrArCrUrUrUrArUrGrArArGrGrUdTdT / antisense rArCrCrUrUrCrArUrArArArGrUrGrUrArUrCrUdGdG | 78.7
sense rGrCrUrGrGrCrUrCrCrCrUrArUrCrCrArCrArCdTdT / antisense rGrUrGrUrGrGrArUrArGrGrGrArGrCrCrArGrCdGdT | 64
sense rArGrArUrUrArUrCrCrCrCrUrCrCrGrArCrCrUdTdT / antisense rArGrGrUrCrGrGrArGrGrGrGrArUrArArUrCrUdTdT | 84.2
sense rUrGrArArArArGrCrCrArGrArGrGrArArCrGrCdTdT / antisense rGrCrGrUrUrCrCrUrCrUrGrGrCrUrUrUrUrCrAdTdA | 35.9
sense rCrCrArCrArCrUrGrUrGrGrArArArCrCrArUrCdTdT / antisense rGrArUrGrGrUrUrUrCrCrArCrArGrUrGrUrGrGdAdT | 86.1
sense rUrCrCrArCrArCrUrGrUrGrGrArArArCrCrArUdTdT / antisense rArUrGrGrUrUrUrCrCrArCrArGrUrGrUrGrGrAdTdA | 85.3
sense rCrArUrGrArGrCrCrUrGrGrGrGrArArGrArUrAdTdT / antisense rUrArUrCrUrUrCrCrCrCrArGrGrCrUrCrArUrGdAdA | 76
sense rArArUrGrGrArGrGrGrArArGrArUrArGrArArAdTdT / antisense rUrUrUrCrUrArUrCrUrUrCrCrCrUrCrCrArUrUdCdT | 85.9
sense rCrArGrGrUrUrUrArArUrArGrArUrGrArCrArAdTdT / antisense rUrUrGrUrCrArUrCrUrArUrUrArArArCrCrUrGdCdA | 97.5
sense rArArGrUrUrGrCrCrCrGrCrUrGrUrGrUrArArGdTdT / antisense rCrUrUrArCrArCrArGrCrGrGrGrCrArArCrUrUdTdT | 79
sense rArArUrCrUrGrGrCrArCrCrCrArArArUrGrUrUdTdT / antisense rArArCrArUrUrUrGrGrGrUrGrCrCrArGrArUrUdTdC | 73.4
sense rArGrArCrCrCrUrArArUrGrGrArGrArCrUrCrAdTdT / antisense rUrGrArGrUrCrUrCrCrArUrUrArGrGrGrUrCrUdGdC | 89.8
sense rUrGrCrCrCrGrCrUrGrUrGrUrArArGrArArArAdTdT / antisense rUrUrUrUrCrUrUrArCrArCrArGrCrGrGrGrCrAdAdC | 94.3
